Source: patent EP4549575A1 (priority 2023, dated 2025)
Entries after “also recorded” stand apart in the source; their conditions may differ. Square brackets hold non-standard residues; d marks the D form. Ends that are not written are not given here. Peptide text beside a SMILES is read from it. βAla = NCCC(=O)O

Test system: P. infestans
Test: not given
Assay type: cell-based
Conditions: Ala-scan of Ac-LP20 and CP20-Met-Ala; P. infestans mycelium in vitro

In order of falling “PPI (%) mycelium” value:
1. CSCC[C@H](NC(=O)[C@H](Cc1c[nH]c2ccccc12)NC(=O)[C@H](CCCNC(=N)N)NC(=O)CCNC(C)=O)C(=O)N[C@@H](CC(C)C)C(=O)N[C@H](C(=O)N[C@@H](C)C(=O)N[C@@H](CCCNC(=N)N)C(=O)N[C@@H](CCCNC(=N)N)C(N)=O)C(C)C [Ac-LP20-Ala7, Ac-βA-RWMLVARR-CONH2] (Ac-[βAla]RWMLVARR-NH2)  17.48 ± 12.34%
2. CSCC[C@H](NC(=O)[C@H](Cc1c[nH]c2ccccc12)NC(=O)[C@H](CCCNC(=N)N)NC(=O)CCNC(C)=O)C(=O)N[C@@H](CC(C)C)C(=O)N[C@H](C(=O)N[C@@H](Cc1ccc(O)cc1)C(=O)N[C@@H](CCCNC(=N)N)C(=O)N[C@@H](C)C(N)=O)C(C)C [Ac-LP20-Ala9, Ac-βA-RWMLVYRA-CONH2] (Ac-[βAla]RWMLVYRA-NH2)  10.57 ± 9.49%

Same assay, conditions: Ala-scan of Ac-LP32; P. infestans mycelium in vitro

In order of falling “PPI (%) micelio” value:
1. CC(=O)NCCC(=O)N[C@@H](C)C(=O)N[C@@H](CCCNC(=N)N)C(=O)N[C@@H](CC(C)C)C(=O)N[C@@H](CCCNC(=N)N)C(=O)N[C@@H](Cc1c[nH]c2ccccc12)C(=O)N[C@@H](CC(C)C)C(=O)N[C@@H](CCCNC(=N)N)C(=O)N[C@H](C(N)=O)C(C)C [Ac-LP32-Ala2, Ac-βA-ARLRWLRV-CONH2] (Ac-[βAla]ARLRWLRV-NH2)  74.81 ± 3.63%
2. CC(=O)NCCC(=O)NCC(=O)N[C@@H](CCCNC(=N)N)C(=O)N[C@@H](CC(C)C)C(=O)N[C@@H](CCCNC(=N)N)C(=O)N[C@@H](Cc1c[nH]c2ccccc12)C(=O)N[C@@H](C)C(=O)N[C@@H](CCCNC(=N)N)C(=O)N[C@H](C(N)=O)C(C)C [Ac-LP32-Ala7, Ac-βA-GRLRWARV-CONH2] (Ac-[βAla]GRLRWARV-NH2)  59.29 ± 7.05%
3. CC(=O)NCCC(=O)NCC(=O)N[C@@H](C)C(=O)N[C@@H](CC(C)C)C(=O)N[C@@H](CCCNC(=N)N)C(=O)N[C@@H](Cc1c[nH]c2ccccc12)C(=O)N[C@@H](CC(C)C)C(=O)N[C@@H](CCCNC(=N)N)C(=O)N[C@H](C(N)=O)C(C)C [Ac-LP32-Ala3, Ac-βA-GALRWLRV-CONH2] (Ac-[βAla]GALRWLRV-NH2)  58.78 ± 3.94%
4. CC(=O)NCCC(=O)NCC(=O)N[C@@H](CCCNC(=N)N)C(=O)N[C@@H](C)C(=O)N[C@@H](CCCNC(=N)N)C(=O)N[C@@H](Cc1c[nH]c2ccccc12)C(=O)N[C@@H](CC(C)C)C(=O)N[C@@H](CCCNC(=N)N)C(=O)N[C@H](C(N)=O)C(C)C [Ac-LP32-Ala4, Ac-βA-GRARWLRV-CONH2] (Ac-[βAla]GRARWLRV-NH2)  56.49 ± 10.10%
5. CC(=O)NCCC(=O)NCC(=O)N[C@@H](CCCNC(=N)N)C(=O)N[C@@H](CC(C)C)C(=O)N[C@@H](CCCNC(=N)N)C(=O)N[C@@H](C)C(=O)N[C@@H](CC(C)C)C(=O)N[C@@H](CCCNC(=N)N)C(=O)N[C@H](C(N)=O)C(C)C [Ac-LP32-Ala6, Ac-βA-GRLRALRV-CONH2] (Ac-[βAla]GRLRALRV-NH2)  54.20 ± 4.31%
6. CC(=O)NCCC(=O)NCC(=O)N[C@@H](CCCNC(=N)N)C(=O)N[C@@H](CC(C)C)C(=O)N[C@@H](C)C(=O)N[C@@H](Cc1c[nH]c2ccccc12)C(=O)N[C@@H](CC(C)C)C(=O)N[C@@H](CCCNC(=N)N)C(=O)N[C@H](C(N)=O)C(C)C [Ac-LP32-Ala5, Ac-βA-GRLAWLRV-CONH2] (Ac-[βAla]GRLAWLRV-NH2)  40.46 ± 1.76%
7. CC(=O)NCCC(=O)NCC(=O)N[C@@H](CCCNC(=N)N)C(=O)N[C@@H](CC(C)C)C(=O)N[C@@H](CCCNC(=N)N)C(=O)N[C@@H](Cc1c[nH]c2ccccc12)C(=O)N[C@@H](CC(C)C)C(=O)N[C@@H](CCCNC(=N)N)C(=O)N[C@@H](C)C(N)=O [Ac-LP32-Ala9, Ac-βA-GRLRWLRA-CONH2] (Ac-[βAla]GRLRWLRA-NH2)  19.85 ± 2.92%
8. CC(=O)NCCC(=O)NCC(=O)N[C@@H](CCCNC(=N)N)C(=O)N[C@@H](CC(C)C)C(=O)N[C@@H](CCCNC(=N)N)C(=O)N[C@@H](Cc1c[nH]c2ccccc12)C(=O)N[C@@H](CC(C)C)C(=O)N[C@@H](C)C(=O)N[C@H](C(N)=O)C(C)C [Ac-LP32-Ala8, Ac-βA-GRLRWLAV-CONH2] (Ac-[βAla]GRLRWLAV-NH2)  17.56 ± 7.48%

Test system: pronase
Test: pronase (commercially available mixture of proteases isolated from the extracellular fluid of Streptomyces griseus, 2.5 µg/mg) in buffer solution (50 mM Tris, 10 mM CaCl2, 150 mM NaCl, 0.05 % (w/v) Br)
Conditions: 37°C, up to 2 h

With Ac-[βAla]GRLRWLRV-NH2 the cleaved bond was “Trp-Leu7, 10 minutes later; also recorded: Leu4-Arg5, 10 min; also recorded: Arg5-Trp, 10 min; also recorded: Leu7-Arg8, 10 min; also recorded: Arg8-Val, 10 min”.
[βAla]RWMLVYRR [CP20] was tested, and the cleaved bond was “Arg8-Arg9, 2 hours; also recorded: Met4-Leu, 2 hours”.
